# Results published in patent US20200284781A1, “TEST METHOD OF COMBINED TOXICITY FOR CH[…] BUTACHLOR” (priority 2019, published 2020).
# Tests used:
# [1] = Single toxicity of chlorpyrifos and butachlor to zebrafish larvae; details: in vivo, other: immersion in test solution (waterborne exposure), read-out: LC50 (95% CI); for LC50 at 24 h: exposure time 24 h; for LC50 at 48 h: exposure time 48 h; for LC50 at 72 h: exposure time 72 h; for LC50 at 96 h: exposure time 96 h
# Experimental: (§1) H. Data processing: Calculating the LC50 value of pesticides on larvae and their 95% confidence limits by probit analysis based on the number and time of dead fish larvae, and using 95% confidence limit of LC50 as the criterion to determine whether the toxicity difference of different pesticides is significant, LC50≤0.1 mg a.i. L^−1, is hypertoxic; 0.1<LC50≤1.0 mg a.i. L^−1, is high toxicity; 1.0<LC50≤[…] a.i. L^−1, is medium toxicity; LC50>10.0 mg a.i. L^−1 is low toxicity. The maximum allowable concentration of MPC employs 100 as the protection factor, the formula is: MPC=96 h-LC50/100, to get the maximum allowable concentration of a poison.
# (§2) H. Data processing: Calculating the LC50 value of pesticides on larvae and their 95% confidence limits by probit analysis based on the number and time of dead fish larvae, and using 95% confidence limit of LC50 as the criterion to determine whether the toxicity difference of different drugs is significant, LC50≤0.1 mg a.i. L^−1, is hypertoxic; 0.1<LC50≤1.0 mg a.i. L^−1, is high toxicity; 1.0<LC50≤10.0 mg a.i. L^−1, is medium toxicity; LC50>10.0 mg a.i. L^−1, is low toxicity, the maximum allowable concentration of MPC employs 100 as the protection factor, the formula is: MPC=96 h-LC50/100, to get the maximum allowable concentration of a poison.
# (§3) Wherein the larvae in the migratory period in step E refer to fish 120 h after fertilization of eggs, for improving the accuracy of the test.
# [2] = Combined toxicity of chlorpyrifos and butachlor to zebrafish larvae; details: in vivo, read-out: LC50 (95% CI) of the component in the mixture
# Experimental: (§4) F. Combined toxicity test: The toxicity test is performed on zebrafish larvae and Japanese medaka larvae, the test procedure is as follows:
# a. Zebrafish larvae: The LC50 value of zebrafish larvae with a single pesticide for 96 h is a toxic unit, and 5-7 different concentrations with a geometrical ratio, test method and calculation of LC50 value of each exposure time are the same as 1.4.2;
# as §2
# [3] = Single toxicity of chlorpyrifos and butachlor to zebrafish embryos; type: in vivo; details: in vivo, other: immersion in test solution (waterborne exposure), read-out: LC50 (95% CI); for LC50 at 24 h: exposure time 24 h; for LC50 at 48 h: exposure time 48 h; for LC50 at 72 h: exposure time 72 h; for LC50 at 96 h: exposure time 96 h
# Experimental: (§5) D. Toxicity of pesticides to zebrafish embryos: On the basis of clearing the effective concentration range of pesticides in pre-tests, diluting the pesticide stock solution with standard dilution water to 5-7 concentrations with a geometrical ratio, and using a 24 well cell culture dish for exposure apparatus, the volume of each well is 3 mL, 20 wells are the same experimental concentration, and the remaining 4 wells are blank controls; during the experiment, of test solution and 1 randomly selected 3 hpf (hourpost-fertilization) normal fertilized embryo at the embryo shield stage were put into every well, set up 3 replicates at each concentration, every culture dish as a replicate, and incubating in a multifunctional incubator at 26±1° C. with a photoperiod of 14 h (light): 10 h (dark);
# (§6) Preferably, in the step D, the test solution needs to be replaced every 24 h, observing and microscopical observing the CK group and the exposed group every 24 h, recording the number of embryos with normal development and malformations, and calculating the number of embryos hatched and larvae malformations, the experiment lasts 96 hours.
# as §5, with “24-well” for “24 well”, “poisoning” for “exposure”, “experiment, 2 mL” for “experiment,”, “C. V:” for “C.”
# as §2
# as §6, with “Wherein” for “Preferably,”, “hours, for structural analysis.” for “hours.”
# zebrafish embryos = test: as above; type: in vivo
# Experimental: as §5, §6
# as §5, with “24-well” for “24 well”, “poisoning” for “exposure”, “experiment, 2 mL” for “experiment,”, “C. V:” for “C.”
# as §2
# as §6, with “Wherein” for “Preferably,”, “hours, for structural analysis.” for “hours.”
# [4] = Single toxicity of chlorpyrifos and butachlor to Japanese medaka larvae; details: in vivo, other: immersion in test solution (waterborne exposure), read-out: LC50 (95% CI); for LC50 at 24 h: exposure time 24 h; for LC50 at 48 h: exposure time 48 h; for LC50 at 72 h: exposure time 72 h; for LC50 at 96 h: exposure time 96 h
# Experimental: as §1, §2, §3
# [5] = Combined toxicity of chlorpyrifos and butachlor to Japanese medaka larvae; details: in vivo
# Experimental: as §4
# (§7) b. Japanese medaka: A single pesticide is used to measure the LC50 value of Japanese medaka for 96 hours, mixing chlorpyrifos and butachlor to form binary mixed systems with different ratios of 1:4, 2:3, 1:1, 3:2 and 4:1, according to the pre-experiment results, 5-7 different concentrations are set at equal logarithmic intervals to determine the combined toxicity of the mixed system to Japanese medaka, the method is the same as the determination of single toxicity, the total concentration of the binary mixture is the sum of the concentrations of the two components;
# as §7, with “different concentrations with a geometrical ratio are set” for “different concentrations are set”, “to Japanese medaka the method” for “to Japanese medaka, the method”, “as the determination, of single” for “as the determination of single”
# as §2
# [6] = Japanese medaka larvae, chlorpyrifos:butachlor ratio 4:1, 24 h, read-out: LC50 (95% CI) of the component in the mixture
# [7] = Japanese medaka larvae, chlorpyrifos:butachlor ratio 4:1, 96 h, read-out: LC50 (95% CI) of the component in the mixture
# [8] = other: immersion in test solution (waterborne exposure), Japanese medaka larvae, chlorpyrifos:butachlor ratio 1:1, 24 h, read-out: LC50 (95%) CI of the component in the mixture
# [9] = other: immersion in test solution (waterborne exposure), Japanese medaka larvae, chlorpyrifos:butachlor ratio 1:1, 48 h, read-out: LC50 (95%) CI of the component in the mixture
# [10] = other: immersion in test solution (waterborne exposure), Japanese medaka larvae, chlorpyrifos:butachlor ratio 1:1, 72 h, read-out: LC50 (95%) CI of the component in the mixture
# [11] = other: immersion in test solution (waterborne exposure), Japanese medaka larvae, chlorpyrifos:butachlor ratio 1:1, 96 h, read-out: LC50 (95%) CI of the component in the mixture
# [12] = other: immersion in test solution (waterborne exposure), Japanese medaka larvae, chlorpyrifos:butachlor ratio 4:1, 48 h, read-out: LC50 (95% CI) of the component in the mixture
# [13] = other: immersion in test solution (waterborne exposure), Japanese medaka larvae, chlorpyrifos:butachlor ratio 4:1, 72 h, read-out: LC50 (95% CI) of the component in the mixture
# [14] = other: immersion in test solution (waterborne exposure), chlorpyrifos:butachlor ratio 1:4, 24 h, read-out: LC50 (95% CI) of the component in the mixture
# [15] = other: immersion in test solution (waterborne exposure), chlorpyrifos:butachlor ratio 1:4, 48 h, read-out: LC50 (95% CI) of the component in the mixture
# [16] = other: immersion in test solution (waterborne exposure), chlorpyrifos:butachlor ratio 1:4, 72 h, read-out: LC50 (95% CI) of the component in the mixture
# [17] = other: immersion in test solution (waterborne exposure), chlorpyrifos:butachlor ratio 1:4, 96 h, read-out: LC50 (95% CI) of the component in the mixture
# [18] = other: immersion in test solution (waterborne exposure), chlorpyrifos:butachlor ratio 2:3, 24 h, read-out: LC50 (95% CI) of the component in the mixture
# [19] = other: immersion in test solution (waterborne exposure), chlorpyrifos:butachlor ratio 2:3, 48 h, read-out: LC50 (95% CI) of the component in the mixture
# [20] = other: immersion in test solution (waterborne exposure), chlorpyrifos:butachlor ratio 2:3, 72 h, read-out: LC50 (95% CI) of the component in the mixture
# [21] = other: immersion in test solution (waterborne exposure), chlorpyrifos:butachlor ratio 2:3, 96 h, read-out: LC50 (95% CI) of the component in the mixture
# [22] = other: immersion in test solution (waterborne exposure), chlorpyrifos:butachlor ratio 3:2, 24 h, read-out: LC50 (95% CI) of the component in the mixture
# [23] = other: immersion in test solution (waterborne exposure), chlorpyrifos:butachlor ratio 3:2, 48 h, read-out: LC50 (95% CI) of the component in the mixture
# [24] = other: immersion in test solution (waterborne exposure), chlorpyrifos:butachlor ratio 3:2, 72 h, read-out: LC50 (95% CI) of the component in the mixture
# [25] = other: immersion in test solution (waterborne exposure), chlorpyrifos:butachlor ratio 3:2, 96 h, read-out: LC50 (95% CI) of the component in the mixture
structure (smiles),measurement,setting,value
"CCCCOCN(C(=O)CCl)c1c(CC)cccc1CC [Butachlor, butachlor]",LC50 at 24 h,[1],0.67 µg/mL
same,LC50 at 48 h,[1],0.59 µg/mL
same,LC50 at 72 h,[1],0.51 µg/mL
same,LC50 at 96 h,[1],0.44 µg/mL
same,LC50 at 24 h,[2]; equitoxic ratio,0.91 µg/mL
same,LC50 at 48 h,[2]; equitoxic ratio,0.72 µg/mL
same,LC50 at 72 h,[2]; equitoxic ratio,0.45 µg/mL
same,LC50 at 96 h,[2]; equitoxic ratio,0.26 µg/mL
same,LC50 at 24 h,[2]; equivalent concentration (1:1),0.18 µg/mL
same,LC50 at 48 h,[2]; equivalent concentration (1:1),0.16 µg/mL
same,LC50 at 72 h,[2]; equivalent concentration (1:1),0.14 µg/mL
same,LC50 at 96 h,[2]; equivalent concentration (1:1),0.11 µg/mL
same,LC50 at 24 h,[3],32.8 µg/mL
same,LC50 at 48 h,[3],5.82 µg/mL
same,LC50 at 72 h,[3],4.42 µg/mL
same,LC50 at 96 h,[3],1.93 µg/mL
same,effects of exposure on zebrafish embryo development,zebrafish embryos,"egg coagulation, pericardial edema, yolk sac edema, and spinal curvature"
same,times more toxic to zebrafish embryos than chlorpyrifos,zebrafish embryos; 96 h,6.75 times
same,LC50 at 24 h,[4],0.85 µg/mL
same,LC50 at 48 h,[4],0.72 µg/mL
same,LC50 at 72 h,[4],0.54 µg/mL
same,LC50 at 96 h,[4],0.43 µg/mL
same,LC50 at 24 h,[5]; [6],0.2 µg/mL
same,LC50 at 96 h,[5]; [7],0.036 µg/mL
same,LC50 at 24 h,[5]; [8],1.53 µg/mL
same,LC50 at 48 h,[5]; [9],1.22 µg/mL
same,LC50 at 72 h,[5]; [10],0.93 µg/mL
same,LC50 at 96 h,[5]; [11],0.81 µg/mL
same,LC50 at 48 h,[5]; [12],0.15 µg/mL
same,LC50 at 72 h,[5]; [13],0.11 µg/mL
same,LC50 at 24 h,[5]; [14],2.29 µg/mL
same,LC50 at 48 h,[5]; [15],1.3 µg/mL
same,LC50 at 72 h,[5]; [16],1.14 µg/mL
same,LC50 at 96 h,[5]; [17],0.88 µg/mL
same,LC50 at 24 h,[5]; [18],2.29 µg/mL
same,LC50 at 48 h,[5]; [19],0.66 µg/mL
same,LC50 at 72 h,[5]; [20],0.43 µg/mL
same,LC50 at 96 h,[5]; [21],0.35 µg/mL
same,LC50 at 24 h,[5]; [22],1.48 µg/mL
same,LC50 at 48 h,[5]; [23],1.29 µg/mL
same,LC50 at 72 h,[5]; [24],0.87 µg/mL
same,LC50 at 96 h,[5]; [25],0.66 µg/mL
"CCOP(=S)(OCC)Oc1nc(Cl)c(Cl)cc1Cl [Chlorpyrifos, chlorpyrifos]",LC50 at 24 h,[1],0.67 µg/mL
same,LC50 at 48 h,[1],0.39 µg/mL
same,LC50 at 72 h,[1],0.34 µg/mL
same,LC50 at 96 h,[1],0.27 µg/mL
same,LC50 at 24 h,[2]; equitoxic ratio,0.55 µg/mL
same,LC50 at 48 h,[2]; equitoxic ratio,0.43 µg/mL
same,LC50 at 72 h,[2]; equitoxic ratio,0.27 µg/mL
same,LC50 at 96 h,[2]; equitoxic ratio,0.16 µg/mL
same,LC50 at 24 h,[2]; equivalent concentration (1:1),0.18 µg/mL
same,LC50 at 48 h,[2]; equivalent concentration (1:1),0.16 µg/mL
same,LC50 at 72 h,[2]; equivalent concentration (1:1),0.14 µg/mL
same,LC50 at 96 h,[2]; equivalent concentration (1:1),0.11 µg/mL
same,LC50 at 24 h,[3],170 µg/mL
same,LC50 at 48 h,[3],120 µg/mL
same,LC50 at 72 h,[3],63.4 µg/mL
same,LC50 at 96 h,[3],13 µg/mL
same,effects of exposure on zebrafish embryo development,zebrafish embryos,"egg coagulation, pericardial edema, yolk sac edema, and spinal curvature"
same,LC50 at 24 h,[4],0.75 µg/mL
same,LC50 at 48 h,[4],0.4 µg/mL
same,LC50 at 72 h,[4],0.35 µg/mL
same,LC50 at 96 h,[4],0.24 µg/mL
same,LC50 at 24 h,[5]; [6],0.8 µg/mL
same,LC50 at 96 h,[5]; [7],0.14 µg/mL
same,LC50 at 24 h,[5]; [8],1.53 µg/mL
same,LC50 at 48 h,[5]; [9],1.22 µg/mL
same,LC50 at 72 h,[5]; [10],0.93 µg/mL
same,LC50 at 96 h,[5]; [11],0.81 µg/mL
same,LC50 at 48 h,[5]; [12],0.61 µg/mL
same,LC50 at 72 h,[5]; [13],0.43 µg/mL
same,LC50 at 24 h,[5]; [14],0.57 µg/mL
same,LC50 at 48 h,[5]; [15],0.33 µg/mL
same,LC50 at 72 h,[5]; [16],0.28 µg/mL
same,LC50 at 96 h,[5]; [17],0.22 µg/mL
same,LC50 at 24 h,[5]; [18],1.52 µg/mL
same,LC50 at 48 h,[5]; [19],0.44 µg/mL
same,LC50 at 72 h,[5]; [20],0.28 µg/mL
same,LC50 at 96 h,[5]; [21],0.23 µg/mL
same,LC50 at 24 h,[5]; [22],2.23 µg/mL
same,LC50 at 48 h,[5]; [23],1.94 µg/mL
same,LC50 at 72 h,[5]; [24],1.31 µg/mL
same,LC50 at 96 h,[5]; [25],0.99 µg/mL
